The test system of series [1] is SNP cells. The experiment in a line: Analysis of cell death (Hoechst 33342, Annexin V-FITC / EthD-III staining). Particulars: for Annexin V-FITC / EthD-III staining 4 h after PDT: 8 μg/mL. It is filed as cell-based, canine. Here is the method: We seeded 5 × 10^4 SNP cells in 35-mm Petri dishes containing 2 mL of cultivation medium. After 24 h of incubation, the dishes were divided into the following […] groups: 1) control group (no treatment); 2) 0 J/cm^2 PDT group (treated with 8 μg/mL G-Ce6 and irradiated with light dose of 0 J/cm^2); 3) 1 J/cm^2 PDT group (treated with 8 μg/mL G-Ce6 and irradiated with light dose of 1 J/cm^2); 4) 5 J/cm^2 PDT group (treated with 8 μg/mL G-Ce6 and irradiated with light dose of 5 J/cm^2); and 5) 15 J/cm^2 PDT group (treated with 8 μg/mL G-Ce6 and irradiated with light dose of 15 J/cm^2).
The cells were incubated with 8 μg/mL G-Ce6 for 24 h. After washing with fresh media, the cells were irradiated with 650-nm laser light (10 mW/cm^2; 1, 5, and 15 J/cm^2) emitted by a semiconductor laser using an optical fiber with a microlens delivery attachment. After 4 h of PDT, the cells were stained using the Promokine Apoptotic/Necrotic/Healthy cell detection kit (PromoKine, Heidelberg, Germany), according to the manufacturer’s instructions. […] Nuclear morphology was examined using an Olympus BX51 (Olympus Co., Tokyo, Japan). […] Nuclear morphology was examined using an Olympus Fluoview FV1000 (Olympus Co., Tokyo, Japan). The cells were analyzed using fluorescence microscopy using FITC and Texas Red filter setting.

Series [2] has as its system murine colon cancer cells. The arrangement: method as in PMID 29408755. Particulars: light dose of 16 J/cm^2; read-out: IC50 against murine colon cancer cells; cited from earlier work.
The subject of series [3] is SNP cells. The series is described as follows: Photodynamic cytotoxicity in SNP cells (Cell Counting Kit-8). The format is cell-based, canine. The settings on record: 650-nm laser, 1 J/cm^2, data not shown. A general note: Tetrazolium dyes change colour on reduction, which living cells bring about.
The test system of series [4] is SNP tumors. The series is described as follows: Intratumoral localization in SNP tumors. The format is in vivo, NOD/ShiJic-scidJcl mice. The settings on record: 10 mg/kg i.v. As to the method:
(§1) Six-week-old female NOD/ShiJic-scidJcl mice (CLEA Japan, Tokyo, Japan) were maintained in isolators under specific pathogen-free conditions. All SCID mice were housed and handled under clean conditions using a Jic rack (Jic Co., Kanagawa, Japan), sterilized water, cages, beddings, and food (CL-2; CLEA Japan, Tokyo, Japan). Food and water were given ad libitum. SNP cells were inoculated subcutaneously in the shaved lower dorsum of mice at a density of 1 × 10^6 cells in 0.1 mL phosphate buffered salts (Nacalai Tesque Inc., Kyoto, Japan) per mouse using a 26-gauge syringe. The treatments were initiated when the average tumor volume reached about 100 mm^3 in tumor model. The use of animals and the procedures employed in this study were approved by the Animal Research Committee of Tottori University (project number: 15-T-48).
To determine the intratumoral localization of G-Ce6, tumors were excised either 5 min or 3 h after G-Ce6 (10 mg/kg, i.v.) administration. Samples were immediately mounted in Tissue-Tek® O.C.T. compound (Sakura® Finetek., Tokyo, Japan) and snap-frozen in dry ice with acetone. Cryostat cross sections (10-μm slices) were taken from the center of each tumor. Each section was examined using the all-in-one fluorescence microscope with a filter (excitation, 405 nm; emission, 640 nm).

The subject of series [5] is SNP cells. The series is described as follows: Effect of a pan-caspase inhibitor on G-Ce6-PDT-induced cell death. The format is cell-based, canine. The settings on record: 8 μg/mL G-Ce6; 10 μM Z-VAD-FMK; 5 J/cm^2. As to the method: SNP cells were incubated with 8 μg/mL G-Ce6 for 24 h in the presence (10 μM) or absence of Z-VAD-FMK (Medical & Biological Laboratories Co. Ltd., Aichi, Japan), which is a pan-caspase inhibitor. After washing with fresh media, the cells were irradiated with 650-nm laser light (10 mW/cm^2, 5 J/cm^2) emitted by a semiconductor laser, using an optical fiber with a microlens delivery attachment. Apoptosis was assessed at 4 h after laser irradiation using the Muse Annexin V and Dead Cell Assay kit.

Series [6] relates to SNP tumors. The experiment in a line: Tumor response to PDT in SNP tumor-bearing mice. The format is in vivo, NOD/ShiJic-scidJcl mice. The settings on record: 10 mg/kg i.v.; for Tumor regrowth delay vs control group: 677-nm, 100 J/cm^2, p < 0.05. Here is the method: as §1
We examined the following two experimental groups: (i) a 3-h-interval PDT group (G-Ce6 administered 3 h before laser irradiation) and (ii) a 5-min-interval PDT group (G-Ce6 administered 5 min before laser irradiation). Tumor-bearing mice were intravenously administered approximately 0.1 mL of G-Ce6 stock solution to achieve a dose of 10 mg/kg body weight; they were irradiated with 677-nm laser light emitted by a diode laser (Osada Electric Co., Ltd., Tokyo, Japan). Light was delivered to the mice through a quartz fiber fitted with a microlens and expanded onto the tumor at a 2–4 mm skin margin. The tumors were exposed at a fluence rate of 250 mW/cm^2, at a light dose of 100 J/cm^2.
The resulting treatment effect was assayed by changes in tumor volume. The tumor size was regularly measured after PDT using a caliper. Tumor volume was calculated using the following formula: tumor volume (V) = (a × b × c) × π/6, where a, b, and c are three orthogonal diameters of the tumor. The experiment was terminated on day 25. All mice were sacrificed via cervical dislocation, and the tumors were harvested.

This is an account of results in PMC6562844, “A Basic Study of Photodynamic Therapy with Glucose-Conjugated Chlorin e6 Using Mammary Carcinoma Xenografts” (Cancers, 2019).

In general, IC50 refers to the midpoint of a concentration-inhibition curve. For the compound `CCC1=C(C)c2cc3[nH]c(cc4nc(c(CC(=O)OC)c5[nH]c(cc1n2)c(C)c5C(=O)OC)[C@@H](CCC(=O)OC)[C@@H]4C)c(C)c3C(C)OCCCS[C@@H]1O[C@H](CO)[C@@H](O)[C@H](O)[C@H]1O` (stereo partly drawn) [G-Ce6, Methyl (7S,8S)-18-ethyl-5-(2-methoxy-2-oxoethyl)-7-(3-methoxy-3-oxopropyl)-2,8,12,17-tetramethyl-13-(1-(3-(((2S,3R,4S,5S,6R)-3,4,5-trihydroxy-6-(hydroxymethyl)tetrahydro-2H-pyran-2-yl)thio)propoxy)ethyl)-7H,8H-porphyrin-3-carboxylate], the “Morphological changes 4 h after PDT” value was “Signs of cell death were not visible” with SNP cells [1] (0 J/cm^2 PDT group, Hoechst 33342); “membrane blebbing” in the series on SNP cells [1] (1 J/cm^2 PDT group); “shrinkage” with SNP cells [1] (5 J/cm^2 PDT group); “cell membranes were not observed and a decrease in the number of SNP cells was evident” with SNP cells [1] (15 J/cm^2 PDT group). Moreover, the “Annexin V-FITC / EthD-III staining 4 h after PDT” value in the series on SNP cells [1] (0 and 1 J/cm^2 PDT groups) was “a few cells were positively stained with EthD-III”; in the series with SNP cells [1] (5 and 15 J/cm^2 PDT groups), “many cells were positively stained with Annexin V or EthD-III”. For the same compound, the “Hoechst 33342 nuclear staining 4 h after PDT” value in the series on SNP cells [1] (5 and 15 J/cm^2 PDT groups) is given as “nuclear condensation”. Also, the concentration for half-maximal inhibition (IC50) in series [2] is 1.35 nM. Further, in the series with SNP cells [3], the “Cytotoxicity after 1 h incubation” value is “No cytotoxicity was observed”. Also, the “Intratumoral localization of fluorescence” value in the series on SNP tumors [4] (5 min after administration) is “within the tumor blood vessel”; with SNP tumors [4] (3 h post administration), “in both tumor interstitial tissue and tumor cells”. In addition, the “G-Ce6-PDT-induced apoptosis and cell death in the presence of Z-VAD-FMK” value in the series with SNP cells [5] is given as “could not be blocked”. Also, the “Mean tumor weight on day 25” value with SNP tumors [6] (3-h-interval PDT) amounted to 210.3 ± 85.0 mg; in the series with SNP tumors [6] (5-min-interval PDT), 34.0 ± 12.7 mg. Besides, the “Tumor regrowth delay vs control group” value in the series on SNP tumors [6] (3-h-interval PDT) and with SNP tumors [6] (5-min-interval PDT) was “significant tumor regrowth delay” throughout.
